# Data from patent publication US20250134895A1, “METHODS AND COMPOSITIONS FOR TREATING ALPHA-SYNUCLEIN-MEDIATED NEURODEGENERATION” (UNIVERSITY HEALTH NETWORK, priority 2021, published 2025).
# Molecular target: α-synuclein oligomers (Homo sapiens, UniProt P37840)
# Experiment: Gaussia luciferase protein-fragment complementation cell assay of α-synuclein oligomers in H4 neuroglioma cells
# Assay type: cell-based
# Parameters: full-length human α-synuclein fused to the N-terminal fragment of Gaussia princeps luciferase (syn-luc1); full-length human α-synuclein fused to the C-terminal fragment of Gaussia princeps luciferase (syn-luc2); expressed in transfected cells; host or cells: H4 neuroglioma cells (ATCC, HTB-148), transient co-transfection
# Settings: 1 μM or 10 μM, Example 9
# Protocol: For controls in this assay, vehicle (i.e., DMSO), rapamycin, and bafilomycin A were used. Rapamycin, or sirolimus, is a small molecule that activates autophagy by inhibiting mTOR (mammalian target of rapamycin). […] To test this possibility, cells expressing α-synuclein were treated with each of the compounds and a cell permeable, resazurin-based assay was used to test for cell viability.
# H4 neuroglioma cells (ATCC, HTB-148) were maintained in Dulbecco's Modified Eagle Medium plus high glucose, L-glutamine, and sodium pyruvate (ThermoFisher, 11995-065) with 10% heat-inactivated fetal bovine serum (ThermoFisher, 16140071) and 1% antibiotic-antimycotic cocktail (ThermoFisher, 15240062) at 37° C. and 5% CO2. DNA expression constructs encoding for full-length human α-synuclein fused to the N-terminal fragment of Gaussia princeps luciferase (syn-luc1), full-length human α-synuclein fused to the C-terminal fragment of Gaussia princeps luciferase (syn-luc2), and full-length Gaussia princeps luciferase were kindly provided by Dr. Pamela McLean, Mayo Clinic Jacksonville.^33 Cells were transiently co-transfected with syn-luc1 and syn-luc2 or transfected with luciferase alone using Superfect transfection reagent (Qiagen, 301305) according to the manufacturer's instructions. Twenty-four hours after transfection, cells were plated on a 96-well microplate at 60,000 cells per well. Twenty-four hours after plating, cells were treated with drugs or vehicle control. Following 24 hours of treatment, cells were washed 1 time with PBS and bioluminescence was measured using an automated CLARIOstar plate reader (Mandel, 430-0505). Cell permeable, native coelenterazine was used as the Gaussia luciferase substrate. Lyophilized coelenterazine (Nanolight, 303-500) was reconstituted in NanoFuel Solvent (Nanolight, 399-1), then diluted in PBS to 16.6 μg/mL, and dispensed per well to a final concentration of 20 μM). The bioluminescent signal generated by the luciferase enzyme was assessed at 470 nm over 5 seconds. Raw luminescence units were normalized to the DMSO vehicle control of each 96-well microplate. To assess cell viability, H4 neuroglioma cells were prepared and treated as described above and, 1 hour prior to viability analysis, cells were treated with PrestoBlue viability reagent (ThermoFisher, A13261) according to the manufacturer's instructions. Fluorescence was automatically measured using a CLARIOstar plate reader (Mandel, 430-0505) and then normalized to the fluorescence measure of the DMSO vehicle control.
# We used a bioluminescent protein-fragment complementation assay in which human H4 neuroglioma cells co-express human α-synuclein tagged with the N- or C-terminal half of Gaussia princeps luciferase (FIG. 12). Reconstitution of a complete and active luciferase molecule from the fragments occurs upon α-synuclein oligomerization, and so luminescence provides an indirect measure of α-synuclein oligomer levels. H4 neuroglioma cells were co-transfected with α-syn luciferase fragments, and constructs were plated into a 96-well plate and treated with either 1 μM or 10 μM of each of the 19 drug compounds.
smiles,measurement,value
"Nc1nc(NC2CC2)c2ncn([C@H]3C=C[C@@H](CO)C3)c2n1 [Abacavir, abacavir]",α-syn oligomers as measured by luciferase activity,significant decrease
